# Measured values: patent US5380731A, “Antiallergic compounds” (Merrell Dow Pharmaceuticals Inc., priority 1993, dated 1995)
# Counter-ions that a name gives are not always drawn.
# Molecular target: T1, H1 receptor (Cavia porcellus, UniProt P31389)
# T1 construct: Strips of guinea pig ileum, 2 cm in length, were set up in an isolated organ bath; from tissue; host or cells: guinea pig ileum strips
# Experiment: guinea pig ileum screen (antagonism of histamine-induced contraction, pA2)
# Format: cell-based
# Settings: isolated guinea pig ileum strips, histamine dose response, 20 minutes incubation; pA2 by the method of Schild (Schild plots)
# Method: It is based upon the phenomenon that histamine causes the contraction of guinea pig ileum. Antihistamine blocks this contraction. This test may be performed in the following manner:
# Strips of guinea pig ileum, 2 cm in length, were set up in an isolated organ bath in tyrode's solution which had the following composition in […] (NaCl, 136.89; KCl, 2.68; CaCl2, 1.8; MgCl2, 1.05; NaH2 PO4, 0.42; NaHCO3, […] were measured isotonically (Grass FTO3C transducer coupled with silver springs) under one gram resting tension and recorded in a Grass polygraph recorder. Cumulative histamine dose response experiments were then performed before and after treatment of tissues with test compounds (20 minutes incubation). Dose ratios were determined graphically at ED50 response levels from the histamine dose response curves, and Schild plots (Arunlakshana, O. and Schild, H. O. Some quantitative uses of drug antagonists. Br. J. Pharmacol. Chemother. 14: 48-58, 1959) were constructed to determine the pA2 values using inverse regression line analysis (Finney, D. J. Statistical methods in biological assays. Hafner Press, New York, 1964). The pA2 is defined as the negative logarithm of the molar concentratrion of antagonist which would increase the ED50 value by […]. In some experiments, pA2 values were estimated according to the method described by van Rossum (Van Rossum, J. M., Cumulative dose-response curves: Technique for the making of dose-response curves in isolated organs and the evaluation of drug parameters. Arch. Int. Pharmacodyn. Ther. 143: 299-330, 1963) which uses the following relationship: pA2=-log ([B]/(dose ratio-1)), where [B] refers to the molar concentration of antagonists used. The test compounds were prepared in ethanol (0.1% v/v).
# T1 sequence (P31389 whole entry): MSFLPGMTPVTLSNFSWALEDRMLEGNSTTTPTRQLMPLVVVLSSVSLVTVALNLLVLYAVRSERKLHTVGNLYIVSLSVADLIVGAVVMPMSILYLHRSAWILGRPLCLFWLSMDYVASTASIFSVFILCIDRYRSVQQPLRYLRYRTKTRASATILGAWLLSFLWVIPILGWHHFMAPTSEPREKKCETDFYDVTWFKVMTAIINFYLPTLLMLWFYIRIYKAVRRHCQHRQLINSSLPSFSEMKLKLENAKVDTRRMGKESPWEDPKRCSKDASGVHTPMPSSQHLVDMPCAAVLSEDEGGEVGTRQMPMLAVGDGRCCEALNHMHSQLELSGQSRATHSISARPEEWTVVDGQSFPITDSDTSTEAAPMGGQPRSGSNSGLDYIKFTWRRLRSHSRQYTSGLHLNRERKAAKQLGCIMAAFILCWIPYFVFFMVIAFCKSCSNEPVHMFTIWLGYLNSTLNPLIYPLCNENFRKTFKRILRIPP
row,Kb,SMILES
1,0.661 nM,"CN1CCC(C(=O)c2nc3ccccc3n2Cc2ccc(F)cc2)CC1 [Example 28, 1[[(4-Fluorophenyl)methyl]-1H-benzimidazol-2-yl][1-methyl-4-piperidinyl]methanone]"
2,2.34 nM,"CN1CCC(C(O)c2nc3ccccc3n2Cc2ccc(F)cc2)CC1 (centres unmarked) [Example 29, 1-[[(4-Fluorophenyl)methyl]-1H-benzimidazol-2-yl][1-methyl-4-piperidinyl]methanol]"
3,2.4 nM,"O=C(CN1CCC(C(=O)c2nc3ccccc3n2Cc2ccc(F)cc2)CC1)Nc1nnn[nH]1 [Example 9, 1-[[(4-Fluorophenyl)methyl]-1H-benzimidazol-2-yl][1-(tetrazoleacetamide)-4-piperidinyl]methanone]"
4,1.78 nM,"COC(=O)COCCN1CCC(C(=O)c2nc3ccccc3n2Cc2ccc(F)cc2)CC1 [Example 2, 1-[[(4-Fluorophenyl)methyl]-1H-benzimidazol-2-yl][1-(carbomethoxymethoxyethyl)-4-piperidinyl]methanone]"

# Same assay, conditions: isolated guinea pig ileum strips, histamine dose response, 20 minutes incubation; pA2 estimated by the method of Van Rossum
SMILES,Kb,pA2 value in the guinea pig ileum screen
"CCOCCn1c(C(=O)C2CCN(CCc3ccc(OC)cc3)CC2)nc2ccccc21 [Example 1, 1-[[(2-Ethoxy)ethyl]-1H-benzimidazol-2-yl][1-[2-(4-methoxyphenyl)ethyl]-4-piperidinyl]methanone hydrochloride]",0.407 nM,
"O=C(O)CN1CCC(C(=O)c2nc3ccccc3n2Cc2ccc(F)cc2)CC1 [Example 4, 1-[[(4-Fluorophenyl)methyl]-1H-benzimidazol-2-yl][1-(carboxymethyl)-4-piperidinyl]methanone]",2.34 nM,
"CCN(CC)C(=O)N1CCC(C(=O)c2nc3ccccc3n2Cc2ccc(F)cc2)CC1 [Example 6, 1-[[(4-Fluorophenyl)methyl]-1H-benzimidazol-2-yl][1-(N,N-diethylcarbamoyl)-4-piperidinyl]methanone]",,7.7
"CCOCCn1c(C(=O)C2CCN(C(=O)OC(C)(C)C)CC2)nc2ccccc21 [Example 1 Step a, 1-[[(2-Ethoxy)ethyl]-1H-benzimidazol-2-yl][1-(t-butyloxycarbonyl)-4-piperidinyl]methanone]",603 nM,

# Now from value to compound:
Kb,pA2 value in the guinea pig ileum screen,SMILES
10.2 nM,,"O=C(c1nc2ccccc2n1Cc1ccc(F)cc1)C1CCN(C(=O)C(F)(F)F)CC1 [Example 8, 1-[[(4-Fluorophenyl)methyl]-1H-benzimidazol-2-yl][1-(trifluoroacetyl)-4-piperidinyl]methanone]"
> 100 nM,,"CC(=O)N1CCC(C(=O)c2nc3ccccc3n2Cc2ccc(F)cc2)CC1 [Example 7, 1-[[(4-Fluorophenyl)methyl]-1H-benzimidazol-2-yl-][1-(acetyl)-4-piperidinyl]methanone]"
> 100 nM,,"CC(C)(C)OC(=O)N1CCC(C(=O)c2nc3ccccc3n2Cc2ccc(F)cc2)CC1 [Example 2 Step a, 1-[[(4-Fluorophenyl)methyl]-1H-benzimidazol-2-yl][1-(t-butyloxycarbonyl)-4-piperidinyl]methanone]"
